Data: ChEMBL document CHEMBL1142226, “Impact of physicochemical and structural properties on the pharmacokinetics of a series of alpha1L-adrenoceptor antagonists” (Drug Metab Dispos, 2007)

Key:
[1] = Elimination half life in human at 0.02 mg/kg, po; type: ADME, organism-based; design: dose 0.02 mg/kg, route oral; settings: in vivo
[2] = Cmax in Sprague-Dawley rat at 1 mg/kg, po; type: ADME, organism-based; design: dose 1 mg/kg, route oral; settings: in vivo
[3] = Plasma clearance in Sprague-Dawley rat at 0.5 mg/kg, iv; type: ADME, organism-based; design: dose 0.5 mg/kg, route intravenous
[4] = Oral bioavailability in Beagle dog at 0.6 mg/kg; type: ADME, organism-based, Canis lupus familiaris; settings: in vivo
[5] = Fraction unbound in Beagle dog liver microsomes at 1 uM; type: ADME, Canis lupus familiaris, Microsome
[6] = Oral bioavailability in Sprague-Dawley rat at 1 mg/kg; type: ADME, organism-based; settings: in vivo
[7] = Lipophilicity, log D in 0.1M potassium phosphate buffer at pH 7.4; type: physicochemical
Rattus norvegicus = assay: Unbound volume of distribution in Sprague-Dawley rat at 0.5 mg/kg, iv; type: ADME, organism-based; design: dose 0.5 mg/kg, route intravenous; settings: in vivo
Liver microsomes = assay: Unbound intrinsic clearance in human liver microsomes at 1 uM; type: ADME, Microsome
[8] = Oral bioavailability in human at 0.25 to 1.5 mg/kg; type: ADME, organism-based; settings: in vivo
[9] = Fraction unbound in human liver microsomes at 1 uM; type: ADME, Microsome
[10] = Metabolic stability in Beagle dog liver microsomes assessed as half life at 1 uM; type: ADME, Canis lupus familiaris, Microsome
[11] = Elimination half life in Beagle dog at 0.3 mg/kg, iv; type: ADME, organism-based, Canis lupus familiaris; design: dose 0.3 mg/kg, route intravenous; settings: in vivo
[12] = Plasma clearance in Beagle dog at 0.3 mg/kg, iv; type: ADME, organism-based, Canis lupus familiaris; design: dose 0.3 mg/kg, route intravenous
[13] = Tmax in Sprague-Dawley rat at 1 mg/kg, po; type: ADME, organism-based; design: dose 1 mg/kg, route oral; settings: in vivo
[14] = Oral absorption in Beagle dog at 0.6 mg/kg, po; type: ADME, organism-based, Canis lupus familiaris; design: dose 0.6 mg/kg, route oral; settings: in vivo, read-out: Fabs
[15] = Protein binding in Sprague-Dawley rat plasma at 1 ug/ml; type: ADME, cell-free; settings: read-out: PPB (converted)
Liver = assay: Unbound intrinsic clearance in Beagle dog liver microsomes at 1 uM; type: ADME, Canis lupus familiaris, Microsome
Homo sapiens = species: Homo sapiens; assay: Protein binding in human plasma at 1 ug/ml; settings: read-out: PPB (converted)
[16] = Elimination half life in Sprague-Dawley rat at 1 mg/kg, po; type: ADME, organism-based; design: dose 1 mg/kg, route oral; settings: in vivo
[17] = Tmax in human at 0.02 mg/kg, po; type: ADME, organism-based; design: dose 0.02 mg/kg, route oral; settings: in vivo
[18] = Elimination half life in Sprague-Dawley rat at 0.5 mg/kg, iv; type: ADME, organism-based; design: dose 0.5 mg/kg, route intravenous; settings: in vivo
[19] = Protein binding in Beagle dog plasma at 1 ug/ml; type: ADME, cell-free, Canis lupus familiaris; settings: read-out: PPB (converted)
[20] = Cmax in human at 0.02 mg/kg, po; type: ADME, organism-based; design: dose 0.02 mg/kg, route oral; settings: in vivo
[21] = Volume of distribution in Beagle dog at 0.3 mg/kg, iv; type: ADME, organism-based, Canis lupus familiaris; design: dose 0.3 mg/kg, route intravenous; settings: in vivo
Canis familiaris [22] = assay: Unbound volume of distribution in Beagle dog at 0.3 mg/kg, iv; type: ADME, organism-based, Canis lupus familiaris; design: dose 0.3 mg/kg, route intravenous; settings: in vivo
[23] = Metabolic stability in human liver microsomes assessed as half life at 1 uM; type: ADME, Microsome
[24] = Volume of distribution in Sprague-Dawley rat at 0.5 mg/kg, iv; type: ADME, organism-based; design: dose 0.5 mg/kg, route intravenous; settings: in vivo
[25] = Dissociation constant, pKa of the compound; type: physicochemical
[26] = Metabolic stability in Sprague-Dawley rat liver microsomes assessed as half life; type: ADME, Microsome
[27] = Metabolic stability in Sprague-Dawley rat bile assessed as drug remaining; type: ADME
[28] = Metabolic stability in Sprague-Dawley rat assessed as hepatic extraction ratio; type: ADME, tissue-based; settings: liver
[29] = Plasma clearance in Beagle dog at 0.5 mg/kg, iv; type: ADME, organism-based, Canis lupus familiaris; design: dose 0.5 mg/kg, route intravenous
[30] = Oral bioavailability in Beagle dog at 0.5 mg/kg; type: ADME, organism-based, Canis lupus familiaris; settings: in vivo
[31] = Oral absorption in Beagle dog at 0.5 mg/kg, po; type: ADME, organism-based, Canis lupus familiaris; design: dose 0.5 mg/kg, route oral; settings: in vivo, read-out: Fabs
[32] = Elimination half life in Beagle dog at 0.5 mg/kg, iv; type: ADME, organism-based, Canis lupus familiaris; design: dose 0.5 mg/kg, route intravenous; settings: in vivo
[33] = Volume of distribution in Beagle dog at 0.5 mg/kg, iv; type: ADME, organism-based, Canis lupus familiaris; design: dose 0.5 mg/kg, route intravenous; settings: in vivo
Canis familiaris [34] = assay: Unbound plasma clearance in Beagle dog at 0.5 mg/kg, iv; type: ADME, organism-based, Canis lupus familiaris; design: dose 0.5 mg/kg, route intravenous; settings: in vivo
Canis familiaris [35] = assay: Unbound volume of distribution in Beagle dog at 0.5 mg/kg, iv; type: ADME, organism-based, Canis lupus familiaris; design: dose 0.5 mg/kg, route intravenous; settings: in vivo
[36] = Antagonist activity at alpha-1L-adrenoceptor in human prostate assessed as inhibition of noradrenaline-mediated contraction; type: functional, tissue-based, Prostate gland
[37] = Antagonist activity at alpha-1-adrenoceptor in rat aorta assessed as inhibition of noradrenaline-mediated contraction; type: functional, tissue-based

fraction unbound at 1 µM [5]	logD [7]	CL (Liver microsomes)	fraction unbound at 1 µM [9]	half-life at 1 µM [10]	CL (Liver)	fraction unbound at 1 ug/ml [19]	half-life at 1 µM [23]	pKa [25]	half-life [26]	Stability [27]	hepatic extraction ratio [28]	clearance [29]	bioavailability [30]	Fa [31]	half-life [32]	Vd [33]	Vd (Canis familiaris [35])	SMILES	further results
–	–	–	–	–	–	–	–	–	> 2 h	90%	0.75	–	–	–	–	–	–	COc1cc2nc(N3CCCN(C(=O)N4CC(O)C(O)C4)CC3)nc(N3CC4C(CC(=O)OC(C)(C)C)C4C3)c2cc1OC (stereo unspecified)	–
0.59	1.8	82 mL/min/kg	0.414	0.417 h	122 mL/min/kg	0.12	0.15 h	8.5	–	–	–	8.8 mL/min/kg	24%	29%	3.6 h	2.8 L/kg	23 L/kg	COc1cc2nc(N3CCCN(C(=O)N4CCOCC4)CC3)cc(N)c2c(-c2ccccc2)c1OC	CL (Canis familiaris [34]): 88 mL/min/kg
–	–	–	–	–	–	–	–	–	> 2 h	90%	0.8	–	–	–	–	–	–	COc1cc2c(cc1OC)CN(c1cc(N3CCCN(C(=O)N4CC(O)C(O)C4)CC3)nc3cc(OC)c(OC)cc13)CC2 (stereo unspecified)	–

More lines, now with the values behind:

SMILES	fraction unbound at 1 µM [5]	logD [7]	CL (Liver microsomes)	fraction unbound at 1 µM [9]	half-life at 1 µM [10]	CL (Liver)	fraction unbound at 1 ug/ml [19]	half-life at 1 µM [23]	pKa [25]	half-life [26]	Stability [27]	hepatic extraction ratio [28]	clearance [29]	bioavailability [30]	Fa [31]	half-life [32]	Vd [33]	Vd (Canis familiaris [35])	further results
COc1cc2nc(N3CCc4c(cccc4NS(C)(=O)=O)C3)nc(N)c2c(-c2ccccn2)c1OC [TAPRIZOSIN]	0.602	3	13 mL/min/kg	0.564	0.5 h	83 mL/min/kg	0.21	0.683 h	6.7	–	–	–	–	–	–	–	–	–	half-life [1]: 11.4 h; Cmax [2]: 105 ng/mL; clearance [3]: 22 mL/min/kg; bioavailability [4]: 79%; bioavailability [6]: 42%; Vd (Rattus norvegicus): 24 L/kg; bioavailability [8]: 73%; half-life [11]: 9.2 h; clearance [12]: 5.6 mL/min/kg; Tmax [13]: 0.5 h; Fa [14]: 89%; fraction unbound at 1 ug/ml [15]: 0.07; fraction unbound at 1 ug/ml (Homo sapiens): 0.07; half-life [16]: 2.9 h; Tmax [17]: 1.3 h; half-life [18]: 1 h; Cmax [20]: 7.5 ng/mL; Vd [21]: 4.4 L/kg; Vd (Canis familiaris [22]): 21 L/kg; Vd [24]: 1.7 L/kg
COc1cc2nc(N3CCCN(C(=O)N4CCOCC4)CC3)cc(N)c2c(-c2ncco2)c1OC	0.962	1.1	–	0.745	1.33 h	–	0.22	0.317 h	7.5	–	–	–	5.9 mL/min/kg	76%	86%	1.9 h	1 L/kg	4.5 L/kg	–
COc1cc2nc(N3CCN(C(=O)C4CCCO4)CC3)nc(N)c2cc1OC (stereo unspecified) [TERAZOSIN]	–	–	–	–	–	–	–	–	–	–	–	–	–	–	–	–	–	–	pA2 [36]: 9.8; pA2 [37]: 10
